# Results reported in patent US20160046618A1, “Cyclopropyl Fused Thiazin-2-Amine Compounds as Beta-Secretase Inhibitors and Methods of Use” (AMGEN INC., priority 2014, published 2016).
# Experiments:
# human recombinant BACE1 = human recombinant BACE1 (Homo sapiens (Human), UniProt P56817); experiment: In vitro enzymatic BACE1 FRET assay; assay type: biochemical; conditions: read-out: IC50 IP (μM) BACE1 enzyme
# How it was run: (§1)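 Protease purified by Ni-NTA chromatography; start with FRET substrate (50 nM); incubate 1 h; quench with Tris to neutral pH; read fluorescence ex 488 / em 590 nm.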
# human recombinant BACE2 = human recombinant BACE2 (Homo sapiens (Human), UniProt Q9Y5Z0); experiment: In vitro enzymatic BACE2 FRET assay; assay type: biochemical; conditions: read-out: IC50 IP (μM) BACE2 enzyme
# How it was run: as §1
# [1] = test system: Aβ40 in conditioned medium of cells stably expressing Amyloid Precursor Protein (APP); experiment: In vitro BACE-1 cell-based assay (Aβ40 sandwich ELISA); conditions: read-out: IC50 IP (μM) BACE1 cell
# How it was run: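 APP-expressing cells treated 24 h at 37 °C with compound in 10-point dose response (top 100 μM or 10 μM, 0.1% DMSO final). Secreted Aβ40 in conditioned medium quantified by sandwich ELISA (pAb40 capture, biotinylated 6E10 detection, time-resolved europium fluorescence); IC50 from percent inhibition versus concentration.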
# Recombinant Cat D = Recombinant Cat D (Homo sapiens (Human), UniProt P07339); experiment: In vitro enzymatic Cathepsin D (Cat D) FRET assay; assay type: biochemical; conditions: read-out: IC50 IP (μM) CatD
# How it was run: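 Cleavage of a 20 nM fluorophore/quencher peptide by CHO-expressed recombinant Cat D proceeded for one hour at pH 3.5 (0.05 M citrate, 5 mM CHAPS, 10% DMSO final). Tris addition neutralized the pH to end the reaction. Fluorescence was then measured (ex 500 nm/em 580 nm).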
# human recombinant BACE2, sequence (Q9Y5Z0 63-518): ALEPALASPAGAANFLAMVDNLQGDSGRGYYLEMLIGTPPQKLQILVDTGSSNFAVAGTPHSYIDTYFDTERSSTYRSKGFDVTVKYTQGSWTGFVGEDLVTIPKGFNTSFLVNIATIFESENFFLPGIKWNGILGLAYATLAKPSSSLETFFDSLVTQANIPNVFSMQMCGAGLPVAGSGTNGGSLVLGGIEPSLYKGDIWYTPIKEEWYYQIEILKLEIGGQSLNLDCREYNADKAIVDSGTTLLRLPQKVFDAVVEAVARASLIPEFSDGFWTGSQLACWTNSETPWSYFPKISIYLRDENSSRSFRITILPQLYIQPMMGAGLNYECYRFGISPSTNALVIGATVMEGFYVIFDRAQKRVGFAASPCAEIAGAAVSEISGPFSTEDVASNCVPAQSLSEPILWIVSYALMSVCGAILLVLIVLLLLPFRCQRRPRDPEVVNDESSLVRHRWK
# human recombinant BACE1, sequence (P56817 46-501): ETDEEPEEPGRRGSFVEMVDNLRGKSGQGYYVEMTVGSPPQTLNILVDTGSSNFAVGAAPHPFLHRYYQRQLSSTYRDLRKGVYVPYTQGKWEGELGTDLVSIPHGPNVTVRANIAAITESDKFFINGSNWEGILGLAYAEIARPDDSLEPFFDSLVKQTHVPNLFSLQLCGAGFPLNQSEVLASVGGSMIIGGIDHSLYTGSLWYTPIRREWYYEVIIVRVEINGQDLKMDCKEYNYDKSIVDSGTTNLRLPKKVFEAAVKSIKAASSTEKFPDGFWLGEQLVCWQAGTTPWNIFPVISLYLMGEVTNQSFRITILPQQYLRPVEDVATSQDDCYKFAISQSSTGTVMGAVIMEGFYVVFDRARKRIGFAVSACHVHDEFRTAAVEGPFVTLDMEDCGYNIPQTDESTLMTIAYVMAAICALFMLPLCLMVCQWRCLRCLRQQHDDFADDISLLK
# Recombinant Cat D, sequence (P07339 65-412): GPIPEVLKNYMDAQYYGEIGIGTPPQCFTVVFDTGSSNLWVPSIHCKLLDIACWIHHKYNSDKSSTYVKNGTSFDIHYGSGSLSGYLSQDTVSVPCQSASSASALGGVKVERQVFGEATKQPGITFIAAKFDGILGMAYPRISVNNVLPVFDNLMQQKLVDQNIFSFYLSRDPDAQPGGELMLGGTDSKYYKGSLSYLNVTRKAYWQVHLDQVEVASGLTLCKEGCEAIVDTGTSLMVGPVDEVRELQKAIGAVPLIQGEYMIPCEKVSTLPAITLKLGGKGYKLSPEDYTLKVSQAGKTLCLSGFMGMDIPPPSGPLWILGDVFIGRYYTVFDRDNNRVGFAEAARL
SMILES,IC50 (human recombinant BACE1),IC50 (human recombinant BACE2),IC50 [1],IC50 (Recombinant Cat D)
"COC[C@]12C[C@H]1[C@@](C)(c1cc(NC(=O)c3cnc(OCC4CCO4)cn3)cc(F)c1F)N=C(N)S2 (stereo partly drawn) [Example 1029, N-(3-((1S,5S,6S)-3-amino-1-(methoxymethyl)-5-methyl-2-thia-4-azabicyclo[4.1.0]hept-3-en-5-yl)-4,5-difluorophenyl)-5-(oxetan-2-ylmethoxy)pyrazine-2-carboxamide]",0.00741 µM,0.459 µM,0.0541 µM,1140 µM
"C=C(C)COc1cnc(C(=O)Nc2cc(F)c(F)c([C@@]3(C)N=C(N)S[C@@]4(COC)C[C@H]43)c2)cn1 [Example 1030, N-(3-((1S,5S,6S)-3-amino-1-(methoxymethyl)-5-methyl-2-thia-4-azabicyclo[4.1.0]hept-3-en-5-yl)-4,5-difluorophenyl)-5-((2-methyl-2-propen-1-yl)oxy)-2-pyrazinecarboxamide]",0.00213 µM,0.072 µM,0.0414 µM,243 µM
"COC[C@]12C[C@H]1[C@@](C)(c1cc(NC(=O)c3cnc(OCc4cc(C)no4)cn3)cc(F)c1F)N=C(N)S2 [Example 1031, N-(3-((1S,5S,6S)-3-amino-1-(methoxymethyl)-5-methyl-2-thia-4-azabicyclo[4.1.0]hept-3-en-5-yl)-4,5-difluorophenyl)-5-((3-methyl-5-isoxazolyl)methoxy)-2-pyrazinecarboxamide]",0.00107 µM,0.0897 µM,0.152 µM,775 µM
"COC[C@]12C[C@H]1[C@@](C)(c1cc(NC(=O)c3cnc(OCc4cc(C)on4)cn3)cc(F)c1F)N=C(N)S2 [Example 1032, N-(3-((1S,5S,6S)-3-amino-1-(methoxymethyl)-5-methyl-2-thia-4-azabicyclo[4.1.0]hept-3-en-5-yl)-4,5-difluorophenyl)-5-((5-methyl-3-isoxazolyl)methoxy)-2-pyrazinecarboxamide]",0.00106 µM,0.0465 µM,0.0323 µM,1020 µM
"COC[C@]12C[C@H]1[C@@](C)(c1cc(NC(=O)c3cnc(OCc4ccccc4)cn3)cc(F)c1F)N=C(N)S2 [Example 1033, N-(3-((1S,5S,6S)-3-amino-1-(methoxymethyl)-5-methyl-2-thia-4-azabicyclo[4.1.0]hept-3-en-5-yl)-4,5-difluorophenyl)-5-(benzyloxy)-2-pyrazinecarboxamide]",0.00105 µM,0.0323 µM,0.101 µM,230 µM
"COC[C@]12C[C@H]1[C@@](C)(c1cc(NC(=O)c3cnc(OCc4nccs4)cn3)cc(F)c1F)N=C(N)S2 [Example 1034, N-(3-((1S,5S,6S)-3-amino-1-(methoxymethyl)-5-methyl-2-thia-4-azabicyclo[4.1.0]hept-3-en-5-yl)-4,5-difluorophenyl)-5-(1,3-thiazol-2-ylmethoxy)-2-pyrazinecarboxamide]",0.0014 µM,0.0118 µM,0.0109 µM,1400 µM
"COC[C@]12C[C@H]1[C@@](C)(c1cc(NC(=O)c3cnc(OCC4CC4(F)F)cn3)cc(F)c1F)N=C(N)S2 (stereo partly drawn) [Example 1035, N-(3-((1S,5S,6S)-3-amino-1-(methoxymethyl)-5-methyl-2-thia-4-azabicyclo[4.1.0]hept-3-en-5-yl)-4,5-difluorophenyl)-5-((2,2-difluorocyclopropyl)methoxy)pyrazine-2-carboxamide]",0.00258 µM,0.1 µM,0.022 µM,1210 µM
"COC[C@]12C[C@H]1[C@@](C)(c1cc(NC(=O)c3cnc(OCc4nnc(C)o4)cn3)cc(F)c1F)N=C(N)S2 [Example 1037, N-(3-((1S,5S,6S)-3-amino-1-(methoxymethyl)-5-methyl-2-thia-4-azabicyclo[4.1.0]hept-3-en-5-yl)-4,5-difluorophenyl)-5-((5-methyl-1,3,4-oxadiazol-2-yl)methoxy)-2-pyrazinecarboxamide]",0.000803 µM,0.128 µM,0.0467 µM,785 µM
"C[C@]1(c2cc(NC(=O)c3cnc(OCC(F)(F)F)cn3)ccc2F)N=C(N)S[C@@]2(C(=O)NCCF)C[C@H]21 [Example 1040, (1S,5S,6S)-3-amino-5-(2-fluoro-5-(5-(2,2,2-trifluoroethoxy)pyrazine-2-carboxamido)phenyl)-N-(2-fluoroethyl)-5-methyl-2-thia-4-azabicyclo[4.1.0]hept-3-ene-1-carboxamide]",0.000426 µM,0.0555 µM,0.00284 µM,212 µM
"CC1(NC(=O)[C@]23C[C@H]2[C@@](C)(c2cc(NC(=O)c4cnc(OCC(F)(F)F)cn4)ccc2F)N=C(N)S3)CC1 [Example 1041, (1S,5S,6S)-3-amino-5-(2-fluoro-5-(5-(2,2,2-trifluoroethoxy)pyrazine-2-carboxamido)phenyl)-5-methyl-N-(1-methylcyclopropyl)-2-thia-4-azabicyclo[4.1.0]hept-3-ene-1-carboxamide]",0.00176 µM,0.222 µM,0.00692 µM,324 µM
"C#CCOc1cnc(C(=O)Nc2cc(F)c(F)c([C@@]3(C)N=C(N)S[C@@]4(CNC(C)=O)C[C@H]43)c2)cn1 [Example 1042, N-(3-((1S,5S,6S)-1-(acetamidomethyl)-3-amino-5-methyl-2-thia-4-azabicyclo[4.1.0]hept-3-en-5-yl)-4,5-difluorophenyl)-5-(prop-2-yn-1-yloxy)pyrazine-2-carboxamide]",0.000317 µM,0.0159 µM,0.00621 µM,55.6 µM
"C#CCOc1cnc(C(=O)Nc2cc(C)c(F)c([C@@]3(C)N=C(N)S[C@@]4(COC)C[C@H]43)c2)cn1 [Example 1043, N-(3-((1S,5S,6S)-3-amino-1-(methoxymethyl)-5-methyl-2-thia-4-azabicyclo[4.1.0]hept-3-en-5-yl)-4-fluoro-5-methylphenyl)-5-(2-propyn-1-yloxy)-2-pyrazinecarboxamide]",0.000352 µM,0.00931 µM,0.0138 µM,196 µM
"COC[C@]12C[C@H]1[C@@](C)(c1cc(NC(=O)c3cnc(OCc4nc(C)no4)cn3)cc(C)c1F)N=C(N)S2 [Example 1044, N-(3-((1S,5S,6S)-3-amino-1-(methoxymethyl)-5-methyl-2-thia-4-azabicyclo[4.1.0]hept-3-en-5-yl)-4-fluoro-5-methylphenyl)-5-((3-methyl-1,2,4-oxadiazol-5-yl)methoxy)-2-pyrazinecarboxamide]",0.001 µM,0.0987 µM,0.017 µM,291 µM
"CC(NC(=O)[C@]12C[C@H]1[C@@](C)(c1cc(NC(=O)c3cnc(OCC(F)(F)F)cn3)ccc1F)N=C(N)S2)C(F)F (stereo partly drawn) [Example 1045, (1S,5S,6S)-3-amino-N-(1,1-difluoropropan-2-yl)-5-(2-fluoro-5-(5-(2,2,2-trifluoroethoxy)pyrazine-2-carboxamido)phenyl)-5-methyl-2-thia-4-azabicyclo[4.1.0]hept-3-ene-1-carboxamide]",0.00181 µM,0.288 µM,0.0738 µM,194 µM
"C#CCOc1cnc(C(=O)Nc2cc(F)c(F)c([C@@]3(C)N=C(N)S[C@@]4(COCC)C[C@H]43)c2)cn1 [Example 1046, N-(3-((1S,5S,6S)-3-amino-1-(ethoxymethyl)-5-methyl-2-thia-4-azabicyclo[4.1.0]hept-3-en-5-yl)-4,5-difluorophenyl)-5-(2-propyn-1-yloxy)-2-pyrazinecarboxamide]",0.00037 µM,0.0307 µM,0.0162 µM,43.5 µM
"CC#CCCOc1cnc(C(=O)Nc2ccc(F)c([C@@]3(C)N=C(N)S[C@@]4(COC)C[C@H]43)c2)cn1 [Example 1047, N-(3-((1S,5S,6S)-3-amino-1-(methoxymethyl)-5-methyl-2-thia-4-azabicyclo[4.1.0]hept-3-en-5-yl)-4-fluorophenyl)-5-(3-pentyn-1-yloxy)-2-pyrazinecarboxamide]",0.0054 µM,0.189 µM,0.015 µM,> 400 µM
"COC[C@]12C[C@H]1[C@@](C)(c1cc(NC(=O)c3cnc(OCC4(C)CC4)cn3)ccc1F)N=C(N)S2 [Example 1049, N-(3-((1S,5S,6S)-3-amino-1-(methoxymethyl)-5-methyl-2-thia-4-azabicyclo[4.1.0]hept-3-en-5-yl)-4-fluorophenyl)-5-((1-methylcyclopropyl)methoxy)-2-pyrazinecarboxamide]",0.0054 µM,0.18 µM,0.0035 µM,> 400 µM
"COC[C@]12C[C@H]1[C@@](C)(c1cc(NC(=O)c3cnc(OCC4(C)COC4)cn3)ccc1F)N=C(N)S2 [Example 1050, N-(3-((1S,5S,6S)-3-amino-1-(methoxymethyl)-5-methyl-2-thia-4-azabicyclo[4.1.0]hept-3-en-5-yl)-4-fluorophenyl)-5-((3-methyl-3-oxetanyl)methoxy)-2-pyrazinecarboxamide]",0.03 µM,1.19 µM,0.035 µM,> 400 µM
"COC[C@]12C[C@H]1[C@@](C)(c1cc(NC(=O)c3cnc(OCCF)cn3)ccc1F)N=C(N)S2 [Example 1052, N-(3-((1S,5S,6S)-3-amino-1-(methoxymethyl)-5-methyl-2-thia-4-azabicyclo[4.1.0]hept-3-en-5-yl)-4-fluorophenyl)-5-(2-fluoroethoxy)-2-pyrazinecarboxamide]",0.016 µM,0.146 µM,0.0083 µM,> 400 µM
